Measurements from PubChem BioAssay AID1963430 (Molecular Pharmacology Branch, DTP, NCI, 2024).
Where “and” joins values, the source holds several entries; their conditions need not be identical. Identical values can stand only once.

System: 521955-158-R2-J5-PDC complex spheroid growth, % test/control
Experiment: Anticancer human tumor 521955-158-R2-J5-PDC patient-derived pancreatic carcinoma cell line growth inhibition [Asc]
Conditions: for viability, T/C: stronger effect = lower value
Summary of the method: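 Stromal components (HUVEC and hMSC) are co-assembled with the cancer cells into multicellular spheroids. Drugs are then added singly or paired, at concentrations falling by half-log increments from a clinically achievable maximum, capped at 10 microM without known Cmax.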

[1] = curve of first compound, second compound 0.03 µM
[2] = curve of first compound, second compound 0.0949 µM
[3] = curve of first compound, second compound 0.3 µM
[4] = curve of first compound, second compound 0.949 µM
[5] = curve of first compound, second compound 3 µM
[6] = second compound 0.03 µM, first compound 0.00316 µM
[7] = second compound 0.03 µM, first compound 0.01 µM
[8] = second compound 0.03 µM, first compound 0.0316 µM
[9] = second compound 0.03 µM, first compound 0.1 µM
[10] = second compound 0.0949 µM, first compound 0.00316 µM
[11] = second compound 0.0949 µM, first compound 0.01 µM
[12] = second compound 0.0949 µM, first compound 0.0316 µM
[13] = second compound 0.0949 µM, first compound 0.1 µM
[14] = second compound 0.3 µM, first compound 0.00316 µM
[15] = second compound 0.3 µM, first compound 0.01 µM
[16] = second compound 0.3 µM, first compound 0.0316 µM
[17] = second compound 0.3 µM, first compound 0.1 µM
[18] = second compound 0.949 µM, first compound 0.00316 µM
[19] = second compound 0.949 µM, first compound 0.01 µM
[20] = second compound 0.949 µM, first compound 0.0316 µM
[21] = second compound 0.949 µM, first compound 0.1 µM
[22] = second compound 3 µM, first compound 0.00316 µM
[23] = second compound 3 µM, first compound 0.01 µM
[24] = second compound 3 µM, first compound 0.0316 µM
[25] = second compound 3 µM, first compound 0.1 µM
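Further: spheroids exposed to agents for 7 days before readout.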
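Wherever viability, T/C is given: 100% = DMSO vehicle control viability.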

COc1c(OCCCN2CCOCC2)ccc2c3n(c(=NC(=O)c4cnc(N)nc4)nc12)CCN3 + CCN1C(C(=O)NC23CCC(C(=O)O)(CC2)CC3)C(c2cccc(Cl)c2F)C2(C(=O)Nc3cc(Cl)ccc32)C12CCCCC2
IC50 [1]: 0.00456 µM | IC50 [2]: 0.00908 µM | IC50 [3]: 0.00714 µM | IC50 [4]: 0.0106 µM | IC50 [5]: 0.0302 µM | viability, T/C [6]: 53.5% | viability, T/C [7]: 43.2% | viability, T/C [8]: 34.5% | viability, T/C [9]: 30.3% | viability, T/C (second compound 0.03 µM, first compound 0.316 µM): 24.3% | viability, T/C (second compound 0.03 µM, first compound 1 µM): 17.3% | viability, T/C [10]: 61.1% | viability, T/C [11]: 47.8% | viability, T/C [12]: 38.2% | viability, T/C [13]: 30.3% | viability, T/C (second compound 0.0949 µM, first compound 0.316 µM): 19% | viability, T/C (second compound 0.0949 µM, first compound 1 µM): 15.2% | viability, T/C [14]: 60.2% | viability, T/C [15]: 40.4% | viability, T/C [16]: 43.3% | viability, T/C [17]: 31% | viability, T/C (second compound 0.3 µM, first compound 0.316 µM): 24.2% | viability, T/C (second compound 0.3 µM, first compound 1 µM): 23.1% | viability, T/C [18]: 71.6% | viability, T/C [19]: 44.7% | viability, T/C [20]: 40.5% | viability, T/C [21]: 31.5% | viability, T/C (second compound 0.949 µM, first compound 0.316 µM): 23.2% | viability, T/C (second compound 0.949 µM, first compound 1 µM): 15.8% | viability, T/C [22]: 93.6% | viability, T/C [23]: 74.2% | viability, T/C [24]: 43.5% | viability, T/C [25]: 37.3% | viability, T/C (second compound 3 µM, first compound 0.316 µM): 22.5% | viability, T/C (second compound 3 µM, first compound 1 µM): 16.7%

Cc1nc(N2CCC3(CC2)COC(C)C3N)c(CO)nc1Sc1ccnc(N)c1Cl (stereo unspecified)
viability, T/C (compound 0.00949 µM): 70.6% and 72.1% and 91.2% | viability, T/C (compound 0.03 µM): 68.2% and 54.1% and 87.1% | viability, T/C (compound 0.0949 µM): 59.4% and 48.2% and 62.4% | viability, T/C (compound 0.3 µM): 48.2% (2×) and 65.5% | viability, T/C (compound 0.949 µM): 55.2% and 53.1% and 52.7% | viability, T/C (compound 3 µM): 51.9% and 43.2% and 57.4%

C=C(F)C(=O)N1CCN(c2nc(OCC3CCCN3C)nc3c2CCN(c2cccc4cccc(Cl)c24)C3)CC1CC#N (stereo unspecified)
viability, T/C (compound 0.0316 µM): 68.6% and 77.1% and 84.2% | viability, T/C (compound 0.1 µM): 89% and 77.1% and 94.1% | viability, T/C (compound 0.316 µM): 78.8% and 86.1% and 107% | viability, T/C (compound 1 µM): 105% and 95.4% and 98.1% | viability, T/C (compound 3.16 µM): 115% and 136% and 120% | viability, T/C (compound 10 µM): 0.29% and 0.32% (2×) | IC50 (curve of compound): 5.33 µM and 5.44 µM and 5.66 µM

NC(=O)C(=Cn1cnc(-c2cc(C(F)(F)F)cc(C(F)(F)F)c2)n1)c1cncnc1
viability, T/C (compound 0.000949 µM): 68.4% and 84.3% and 83.5% | viability, T/C (compound 0.003 µM): 42.6% and 54.8% and 95.5% | viability, T/C (compound 0.00949 µM): 37.3% and 48.3% and 47.9% | viability, T/C (compound 0.03 µM): 28.6% and 36.7% and 57.8% | viability, T/C (compound 0.0949 µM): 27.8% and 32.6% and 43.7% | viability, T/C (compound 0.3 µM): 23.8% and 48% and 30.4%

NC1CCC(NC2CC2c2ccccc2)CC1 (stereo unspecified) + CNC(C)C(=O)NC1CN(S(=O)(=O)c2cccc(S(=O)(=O)N3CCC4CCC(C(=O)NC(c5ccccc5)c5ccccc5)N4C(=O)C(NC(=O)C(C)NC)C3)c2)CCC2CCC(C(=O)NC(c3ccccc3)c3ccccc3)N2C1=O
IC50 (curve of first compound, second compound 0.01 µM): > 0.1 µM | IC50 (curve of first compound, second compound 0.0316 µM): > 0.1 µM | IC50 (curve of first compound, second compound 0.1 µM): > 0.1 µM | IC50 (curve of first compound, second compound 0.316 µM): > 0.1 µM | IC50 (curve of first compound, second compound 1 µM): > 0.1 µM | viability, T/C (second compound 0.01 µM, first compound 0.000316 µM): 79.9% | viability, T/C (second compound 0.01 µM, first compound 0.001 µM): 70.7% | viability, T/C (second compound 0.01 µM, first compound 0.00316 µM): 82.2% | viability, T/C (second compound 0.01 µM, first compound 0.01 µM): 80.9% | viability, T/C (second compound 0.01 µM, first compound 0.0316 µM): 71.6% | viability, T/C (second compound 0.01 µM, first compound 0.1 µM): 69.1% | viability, T/C (second compound 0.0316 µM, first compound 0.000316 µM): 88.5% | viability, T/C (second compound 0.0316 µM, first compound 0.001 µM): 81.4% | viability, T/C (second compound 0.0316 µM, first compound 0.00316 µM): 61% | viability, T/C (second compound 0.0316 µM, first compound 0.01 µM): 79% | viability, T/C (second compound 0.0316 µM, first compound 0.0316 µM): 72% | viability, T/C (second compound 0.0316 µM, first compound 0.1 µM): 64.8% | viability, T/C (second compound 0.1 µM, first compound 0.000316 µM): 66.5% | viability, T/C (second compound 0.1 µM, first compound 0.001 µM): 83.7% | viability, T/C (second compound 0.1 µM, first compound 0.00316 µM): 80.7% | viability, T/C (second compound 0.1 µM, first compound 0.01 µM): 74.2% | viability, T/C (second compound 0.1 µM, first compound 0.0316 µM): 85.8% | viability, T/C (second compound 0.1 µM, first compound 0.1 µM): 58.8% | viability, T/C (second compound 0.316 µM, first compound 0.000316 µM): 73.8% | viability, T/C (second compound 0.316 µM, first compound 0.001 µM): 93.5% | viability, T/C (second compound 0.316 µM, first compound 0.00316 µM): 83% | viability, T/C (second compound 0.316 µM, first compound 0.01 µM): 49% | viability, T/C (second compound 0.316 µM, first compound 0.0316 µM): 68.7% | viability, T/C (second compound 0.316 µM, first compound 0.1 µM): 72% | viability, T/C (second compound 1 µM, first compound 0.000316 µM): 82% | viability, T/C (second compound 1 µM, first compound 0.001 µM): 70.5% | viability, T/C (second compound 1 µM, first compound 0.00316 µM): 87.3% | viability, T/C (second compound 1 µM, first compound 0.01 µM): 90% | viability, T/C (second compound 1 µM, first compound 0.0316 µM): 56.6% | viability, T/C (second compound 1 µM, first compound 0.1 µM): 66.5%

CCN1CCN(Cc2ccc(Nc3ncc(F)c(-c4cc(F)c5nc(C)n(C(C)C)c5c4)n3)nc2)CC1
viability, T/C (compound 0.00316 µM): 70.6% and 82.3% and 87.5% | viability, T/C (compound 0.01 µM): 72% and 65.5% and 92.3% | viability, T/C (compound 0.0316 µM): 54.5% and 79.2% and 78.5% | viability, T/C (compound 0.1 µM): 66.6% and 70.4% and 70.9% | viability, T/C (compound 0.316 µM): 74.6% and 71.2% and 91.2% | viability, T/C (compound 1 µM): 103% and 98.6% and 108% | IC50 (curve of compound): > 1 µM

NC1CCC(NC2CC2c2ccccc2)CC1 (stereo unspecified) + CCN1C(C(=O)NC23CCC(C(=O)O)(CC2)CC3)C(c2cccc(Cl)c2F)C2(C(=O)Nc3cc(Cl)ccc32)C12CCCCC2
IC50 [1]: > 0.1 µM | IC50 [2]: > 0.1 µM | IC50 [3]: > 0.1 µM | IC50 [4]: > 0.1 µM | IC50 [5]: > 0.1 µM | viability, T/C (second compound 0.03 µM, first compound 0.000316 µM): 59% | viability, T/C (second compound 0.03 µM, first compound 0.001 µM): 52.7% | viability, T/C [6]: 64.8% | viability, T/C [7]: 59.2% | viability, T/C [8]: 57.4% | viability, T/C [9]: 46.1% | viability, T/C (second compound 0.0949 µM, first compound 0.000316 µM): 55.9% | viability, T/C (second compound 0.0949 µM, first compound 0.001 µM): 55.1% | viability, T/C [10]: 69.4% | viability, T/C [11]: 59.3% | viability, T/C [12]: 65% | viability, T/C [13]: 65.8% | viability, T/C (second compound 0.3 µM, first compound 0.000316 µM): 58.5% | viability, T/C (second compound 0.3 µM, first compound 0.001 µM): 44.1% | viability, T/C [14]: 58.8% | viability, T/C [15]: 65.8% | viability, T/C [16]: 48.8% | viability, T/C [17]: 71.4% | viability, T/C (second compound 0.949 µM, first compound 0.000316 µM): 58.5% | viability, T/C (second compound 0.949 µM, first compound 0.001 µM): 66.8% | viability, T/C [18]: 74% | viability, T/C [19]: 67.5% | viability, T/C [20]: 62.5% | viability, T/C [21]: 77.4% | viability, T/C (second compound 3 µM, first compound 0.000316 µM): 84.7% | viability, T/C (second compound 3 µM, first compound 0.001 µM): 109% | viability, T/C [22]: 83.1% | viability, T/C [23]: 113% | viability, T/C [24]: 92.8% | viability, T/C [25]: 91.7%
